Test results from PubChem BioAssay (NCI).
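GI50 marks 50% less growth. TGI: concentration producing complete growth inhibition.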

Columns and labels:
Test in all cases: DTP human tumour cell line panel, 384-well format
RPMI-8226 leukemia = tested on: RPMI-8226 leukemia
EKVX NSCLC = tested on: EKVX NSCLC
M14 melanoma = tested on: M14 melanoma
OVCAR-3 ovarian = tested on: OVCAR-3 ovarian
OVCAR-8 ovarian = tested on: OVCAR-8 ovarian
HS 578T breast = tested on: HS 578T breast
KM12 colon = tested on: KM12 colon
MOLT-4 leukemia = tested on: MOLT-4 leukemia
MDA-MB-435 melanoma = tested on: MDA-MB-435 melanoma
NCI-H322M lung = tested on: NCI-H322M lung
SK-MEL-5 melanoma = tested on: SK-MEL-5 melanoma
CAKI-1 renal = tested on: CAKI-1 renal
SR leukemia = tested on: SR leukemia
SF-295 CNS = tested on: SF-295 CNS
RXF 393 renal = tested on: RXF 393 renal
TK-10 renal = tested on: TK-10 renal
DU-145 prostate = tested on: DU-145 prostate
LOX IMVI melanoma = tested on: LOX IMVI melanoma
MDA-MB-468 breast = tested on: MDA-MB-468 breast
HCT-116 colon = tested on: HCT-116 colon
SNB-19 CNS = tested on: SNB-19 CNS
UACC-257 melanoma = tested on: UACC-257 melanoma
BT-549 breast = tested on: BT-549 breast
HL-60(TB) leukemia = tested on: HL-60(TB) leukemia
NCI-H522 lung = tested on: NCI-H522 lung
NCI-H460 NSCLC = tested on: NCI-H460 NSCLC
IGROV1 ovarian = tested on: IGROV1 ovarian
SNB-75 CNS = tested on: SNB-75 CNS
UACC-62 melanoma = tested on: UACC-62 melanoma
SK-OV-3 ovarian = tested on: SK-OV-3 ovarian
MCF7 breast = tested on: MCF7 breast
HCT-15 colon = tested on: HCT-15 colon
SN12C renal = tested on: SN12C renal
NCI-H23 lung = tested on: NCI-H23 lung
HT29 colon = tested on: HT29 colon
OVCAR-4 ovarian = tested on: OVCAR-4 ovarian
T-47D breast = tested on: T-47D breast
HOP-62 NSCLC = tested on: HOP-62 NSCLC
A498 renal = tested on: A498 renal
HCC-2998 colon = tested on: HCC-2998 colon
SF-268 CNS = tested on: SF-268 CNS
SF-539 CNS = tested on: SF-539 CNS
ACHN renal = tested on: ACHN renal
A549 NSCLC = tested on: A549 NSCLC
NCI/ADR-RES ovarian = tested on: NCI/ADR-RES ovarian
HOP-92 NSCLC = tested on: HOP-92 NSCLC
NCI-H226 lung = tested on: NCI-H226 lung
COLO 205 colon = tested on: COLO 205 colon
PC-3 prostate = tested on: PC-3 prostate
U251 glioblastoma = tested on: U251 glioblastoma
MDA-MB-231 breast = tested on: MDA-MB-231 breast

Compound: Cc1ccc(Cl)cc1-c1nc(N)nc(Nc2ccc(Br)cc2)n1
- GI50 (RPMI-8226 leukemia): 0.02 µM
- TGI (RPMI-8226 leukemia): 0.0383 µM
- GI50 (EKVX NSCLC): 0.0494 µM
- TGI (EKVX NSCLC): > 100 µM
- GI50 (M14 melanoma): 0.0289 µM
- TGI (M14 melanoma): 0.0712 µM
- GI50 (OVCAR-3 ovarian): 0.0223 µM
- TGI (OVCAR-3 ovarian): 0.0458 µM
- GI50 (OVCAR-8 ovarian): 0.0518 µM
- TGI (OVCAR-8 ovarian): > 100 µM
- GI50 (HS 578T breast): 0.0214 µM
- TGI (HS 578T breast): 0.0511 µM
- GI50 (KM12 colon): 0.0434 µM
- TGI (KM12 colon): 94.1 µM
- GI50 (MOLT-4 leukemia): 0.021 µM
- TGI (MOLT-4 leukemia): 0.0372 µM
- GI50 (MDA-MB-435 melanoma): 0.02 µM
- TGI (MDA-MB-435 melanoma): 0.0394 µM
- GI50 (NCI-H322M lung): 0.409 µM
- TGI (NCI-H322M lung): > 100 µM
- GI50 (SK-MEL-5 melanoma): 0.0242 µM
- TGI (SK-MEL-5 melanoma): 0.0586 µM
- GI50 (CAKI-1 renal): 0.0688 µM
- TGI (CAKI-1 renal): > 100 µM
- GI50 (SR leukemia): 0.0173 µM
- TGI (SR leukemia): 0.0376 µM
- GI50 (SF-295 CNS): 0.0355 µM
- TGI (SF-295 CNS): 12.6 µM
- GI50 (RXF 393 renal): 0.0328 µM
- TGI (RXF 393 renal): 36.6 µM
- GI50 (TK-10 renal): 0.07 µM
- TGI (TK-10 renal): > 100 µM
- GI50 (DU-145 prostate): 0.0395 µM
- TGI (DU-145 prostate): 0.269 µM
- GI50 (LOX IMVI melanoma): 0.0552 µM
- TGI (LOX IMVI melanoma): 0.569 µM
- GI50 (MDA-MB-468 breast): 0.174 µM
- TGI (MDA-MB-468 breast): 0.378 µM
- GI50 (HCT-116 colon): 0.0452 µM
- TGI (HCT-116 colon): > 100 µM
- GI50 (SNB-19 CNS): 0.0541 µM
- TGI (SNB-19 CNS): 14.4 µM
- GI50 (UACC-257 melanoma): 0.0401 µM
- TGI (UACC-257 melanoma): > 100 µM
- GI50 (BT-549 breast): 0.0491 µM
- TGI (BT-549 breast): 0.374 µM
- GI50 (HL-60(TB) leukemia): 0.0205 µM
- TGI (HL-60(TB) leukemia): 0.0352 µM
- GI50 (NCI-H522 lung): 0.0239 µM
- TGI (NCI-H522 lung): 0.0479 µM
- GI50 (NCI-H460 NSCLC): 0.0252 µM
- TGI (NCI-H460 NSCLC): 0.0633 µM
- GI50 (IGROV1 ovarian): 0.0733 µM
- TGI (IGROV1 ovarian): > 100 µM
- GI50 (SNB-75 CNS): 0.0452 µM
- TGI (SNB-75 CNS): 24.3 µM
- GI50 (UACC-62 melanoma): 0.0453 µM
- TGI (UACC-62 melanoma): > 100 µM
- GI50 (SK-OV-3 ovarian): 0.0386 µM
- TGI (SK-OV-3 ovarian): 57 µM
- GI50 (MCF7 breast): 0.0501 µM
- TGI (MCF7 breast): > 100 µM
- GI50 (HCT-15 colon): 0.0374 µM
- TGI (HCT-15 colon): 0.271 µM
- GI50 (SN12C renal): 0.0254 µM
- TGI (SN12C renal): 37.5 µM
- GI50 (NCI-H23 lung): 0.0499 µM
- TGI (NCI-H23 lung): > 100 µM
- GI50 (HT29 colon): 0.0344 µM
- TGI (HT29 colon): 15.1 µM
- GI50 (OVCAR-4 ovarian): 0.0573 µM
- TGI (OVCAR-4 ovarian): 91.8 µM
- GI50 (T-47D breast): 23.5 µM
- TGI (T-47D breast): > 100 µM
- GI50 (HOP-62 NSCLC): 0.036 µM
- TGI (HOP-62 NSCLC): 17.6 µM
- GI50 (A498 renal): 0.038 µM
- TGI (A498 renal): 14.8 µM
- GI50 (HCC-2998 colon): 0.0259 µM
- TGI (HCC-2998 colon): 0.17 µM
- GI50 (SF-268 CNS): 0.0504 µM
- TGI (SF-268 CNS): > 100 µM
- GI50 (SF-539 CNS): 0.0363 µM
- TGI (SF-539 CNS): 1.06 µM
- GI50 (ACHN renal): 0.077 µM
- TGI (ACHN renal): > 100 µM
- GI50 (A549 NSCLC): 0.088 µM
- TGI (A549 NSCLC): > 100 µM
- GI50 (NCI/ADR-RES ovarian): 0.0209 µM
- TGI (NCI/ADR-RES ovarian): 0.0513 µM
- GI50 (HOP-92 NSCLC): 10.4 µM
- TGI (HOP-92 NSCLC): > 100 µM
- GI50 (NCI-H226 lung): 0.0356 µM
- TGI (NCI-H226 lung): 0.0978 µM
- GI50 (COLO 205 colon): 0.034 µM
- TGI (COLO 205 colon): 0.0936 µM
- GI50 (PC-3 prostate): 0.046 µM
- TGI (PC-3 prostate): 51.9 µM
- GI50 (U251 glioblastoma): 0.0428 µM
- TGI (U251 glioblastoma): 2.87 µM
- GI50 (MDA-MB-231 breast): 0.0844 µM
- TGI (MDA-MB-231 breast): > 100 µM
